Assay results from PubChem BioAssay AID179 (DTP/NCI, 2004).
Active and inactive are the calls of the source.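 Rule for the calls: active = compounds giving half or more protection of infected cells from virus-caused growth loss, again on retest; inactive = the rest.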 Where a SMILES comes first, the peptide text is derived from it.

System: CEM cells HIV-1 protection, formazan growth assay
Test: NCI AIDS Antiviral Assay
Conditions: for IC50: measured here: growth of uninfected CEM cells
Procedure, shortened: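 Protection of CEM cells against HIV-1 was scored from cell growth (soluble formazan) across five concentrations, with parallel uninfected cells. Lack of protection may reflect toxicity.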

Row | Structure (SMILES) | EC50 [µM] | IC50 [µM] | outcome
1 | N#Cc1nc(-c2ccccc2O)oc1N | > 200 | > 100 | –
2 | COc1cc(/C=C2\CC/C(=C\c3cc(OC)c(O)c(OC)c3)C2=O)cc(OC)c1O | > 200 | 1.02 | –
3 | CCOC(=O)NC(=O)c1cn(C2OC(CO)C(O)C2O)c(=O)[nH]c1=O (stereo unspecified) | > 692 | > 692 | –
4 | CCN(CCCN(CC)C(=O)N[C@@H](Cc1ccccc1)C(=O)NC)C(=O)N[C@@H](Cc1ccccc1)C(=O)NC | > 200 | > 200 | –
5 | Cc1cc2c(C)nn(Cc3ccc(Cl)cc3)c2c(C#N)c1C | > 43.7 | > 43.7 | –
6 | CCCCOC(=S)SSC(=S)NCCNC(=S)SSC(=S)OCCCC | > 200 | 55 | –
7 | COc1ccc(Cc2c[n+](C)cc3cc(N=O)c(OC)cc23)cc1O | > 200 | > 200 | –
8 | CCO/C=C(/C#N)C(=O)OC | – | – | inactive
9 | COc1cccc(-c2nc(-c3cnccn3)n(C3OC(CO)C(O)C(O)C3O)n2)c1 (stereo unspecified) | > 200 | > 200 | –
10 | CCOC(OCC)c1ccccc1.[C-]#[O+].[C-]#[O+].[C-]#[O+].[Cr] | > 20 | 2.04 | –
11 | CC(C)(C)C(C#N)(C#N)c1ccc(C(C#N)(C#N)C(C)(C)C)nn1 | – | – | inactive
12 | Cc1ccc(S(=O)(=O)OC2C3OC(C)(C)OC3OC2C(c2cc(O)c3c(c2O)C(=O)c2ccccc2C3=O)c2cc(O)c3c(c2O)C(=O)c2ccccc2C3=O)cc1 (stereo unspecified) | > 200 | > 200 | –
13 | COc1ccc(NC(=S)NN=C(C)c2cccc(C(C)=NNC(=S)Nc3ccc(OC)cc3)n2)cc1 | > 200 | 55 | –
14 | COc1cc2c(c([N+](=O)[O-])c1)NC(=O)CC(C)S2 (stereo unspecified) | 95.5 | 148 | –
15 | COc1ccc(C(=O)Sc2c(-c3ccccc3)c(=O)n(-c3ccccc3)c(=S)n2-c2ccccc2)cc1 | > 200 | 3.31 | –
16 | CC(=O)N1N=C(c2ccccc2Nc2ccccc2C2=NN(C(C)=O)C(c3ccccc3)O2)OC1c1ccccc1 (stereo unspecified) | > 200 | 6.17 | –
17 | CCC(C)C(N)CO (stereo unspecified) | > 200 | > 200 | –
18 | COC(=O)N1[C@H]2Cc3c(OC)c(C)c(OC)c(OC)c3[C@@H]1/C(=C\c1cc(OC)c(OC)c(C)c1OC)N(Cc1ccccc1)C2=O | – | – | inactive
19 | Cn1c(=O)c2c(nc3n(Cc4ccccc4)c(=O)c(NCCBr)cn23)n(C)c1=O | > 126 | 49 | –
20 | NC(C/C=C/P(=O)(O)O)C(=O)O (stereo unspecified) | > 200 | 155 | –
21 | COC(=O)CCC(C)C1CCC2[C@@H]3CC[C@@H]4CC(O)CC[C@]4(C)C3CC[C@]12C (stereo partly specified) | > 25.7 | > 25.7 | –
22 | COc1nc(NC2OCC(O)C(O)C2O)c(NC2OCC(O)C(O)C2O)c(=O)n1C (stereo unspecified) | > 575 | > 575 | –
23 | CC#CC(O)(C(=O)OC1CC2CCC(C1)N2C)C1CCCC1 (stereo unspecified) | > 200 | > 200 | –
24 | NC(N)=NNCCOc1c(Cl)cccc1Cl | > 200 | 91.2 | –
25 | C=CCCCCCCCCC/C=C1\C[C@H](O)COC1=O | > 93.3 | > 93.3 | –
26 | Oc1ccc(Oc2cc3c(cc2Oc2ccc(O)cc2)-c2nc-3nc3[nH]c(nc4nc(nc5[nH]c(n2)c2cc(Oc6ccc(O)cc6)c(Oc6ccc(O)cc6)cc52)-c2cc(Oc5ccc(O)cc5)c(Oc5ccc(O)cc5)cc2-4)c2cc(Oc4ccc(O)cc4)c(Oc4ccc(O)cc4)cc32)cc1 | > 50.1 | 22.9 | –
27 | Cc1ccc(S(=O)(=O)N(/N=C(\N)Oc2ccc(Cl)cc2)C(=N)Oc2ccc(Cl)cc2)cc1 | > 100 | > 100 | –

Row | Structure (SMILES) | EC50 [µM] | IC50 [µM] | outcome
28 | O=c1[nH][nH]c(=O)c2[nH]cnc12 | – | – | inactive
29 | CCC(C)C(NC(=O)C(CCC(=O)O)NC(=O)C(CCCCN)NC(=O)C(CO)NC(=O)C(CC(C)C)NC(=O)C(Cc1ccc(O)cc1)NC(=O)C(C)N)C(=O)NC(C)C(=O)NC(CO)C(=O)NC(CC(=O)O)C(=O)O (stereo unspecified) (H-AYLSKEIASD-OH; configuration not given here) | > 29.5 | > 29.5 | inactive
30 | CCCC(=O)OCC1(Cl)CCC2c3c(c4ccccc4n3C)CC1N2Cc1ccccc1 (stereo unspecified) | > 11.5 | 6.92 | –
31 | CC(C)C(Sc1nc(-c2ccccc2)c(-c2ccccc2)[nH]1)c1n[nH]c(=S)n1-c1ccccc1 (stereo unspecified) | > 14.8 | 7.08 | –
32 | C=CC1CN2CCC1C/C2=N\O (stereo unspecified) | – | – | inactive
33 | C=CCN1C(=O)C/C(=C2/CCC(=O)N2CC=C)C1=O | > 955 | > 955 | –
34 | COC(=O)C(CCc1cc(OC)ccc1I)C1=CCC2(CC1)OCCO2 (stereo unspecified) | > 38 | > 38 | –
35 | CC(=O)/C(C)=N/NC(=O)c1ccccc1O | > 4.79 | > 4.79 | –
36 | CC(C)(C)C1=CC(=C(c2ccccc2)c2ccccc2)C=C(C(C)(C)C)C1=O | > 47.9 | > 47.9 | –
37 | Cn1nc2ccc3nccc(NCCNCCCl)c3c2n1 | > 1.17 | > 1.17 | –
38 | O=C(NN1C(=O)C(Cl)C1c1ccc([N+](=O)[O-])cc1)c1ccccc1O (stereo unspecified) | > 10.5 | > 10.5 | –
39 | CC1=NN(C(=O)CC(=O)Nc2ccccc2Cl)C(=O)C1N=Nc1ccc(S(=O)(=O)c2ccc(N=NC3C(=O)N(C(=O)CC(=O)Nc4ccccc4Cl)N=C3C)cc2)cc1 (stereo unspecified) | > 100 | > 100 | –
40 | N=C(N)C1CN(CCc2cnc[nH]2)C(=O)NC1=O (stereo unspecified) | > 200 | > 200 | –
41 | CCN(CC)CC(=O)Nc1cccc(C(=O)OC(C)C)c1 | > 200 | > 200 | –
42 | CCc1cccc(C)c1N1C(=O)C(=O)C(c2nc3ccccc3o2)C(=O)C1=O | > 331 | 66.1 | –
43 | Cc1[nH]c(=O)nc(CC(O)(c2ccccc2)c2ccccc2)c1-c1ccccc1 | > 2.75 | > 2.75 | –
44 | Cc1ccc(S(=O)(=O)n2cnc(CC(NC(=O)C3CCC(=O)N3C(=O)OCc3ccccc3)C(=O)N3CCCC3C(=O)NN)c2)cc1 (stereo unspecified) | > 200 | > 200 | –
45 | CC1CCc2ccccc2O1 (stereo unspecified) | > 200 | > 200 | –
46 | CC1(C)O[C@H]2OC(CO[Si](C)(C)C(C)(C)C)C(N=[N+]=[N-])[C@H]2O1 (stereo partly specified) | > 20 | > 20 | –
47 | CC(=O)OCCCOCn1cc(C)c(=O)[nH]c1=O | > 200 | > 200 | –
48 | CC(=O)Nc1ccc(N2C(=O)/C(=C\c3cccc(Oc4ccccc4)c3)SC2c2ccccc2)cc1 (stereo unspecified) | > 200 | 36.3 | –
49 | COC(=O)/C=C(\C(=O)OC)c1c2c3c(cc(OC)c(OC)c3c3ccccc13)CCN2C | – | – | inactive
50 | CCO/C=N\C1=C(C#N)SC2=N/C(=C\c3ccc(OC)cc3)C(=O)N21 | > 200 | > 200 | –
51 | C=CCOC(=O)/C(=C\c1ccc(OC)c(OC)c1)c1ccc(OC)c(OC)c1 | > 200 | > 200 | –
52 | COC1(OC)CC(CO)(CNc2cc(Cl)nc(N)n2)C1 | > 200 | > 200 | –
53 | Brc1ccc2c(-c3csc(-c4c[nH]c5cc(Br)ccc45)n3)c[nH]c2c1 | > 200 | 52.5 | –
54 | COC(=O)C(Cc1ccccc1)NS(=O)(=O)c1ccc(-c2c3nc(c(-c4ccc(S(=O)(=O)NC(Cc5ccccc5)C(=O)OC)cc4)c4ccc([nH]4)c(-c4ccc(S(=O)(=O)NC(Cc5ccccc5)C(=O)OC)cc4)c4nc(c(-c5ccc(S(=O)(=O)NC(Cc6ccccc6)C(=O)OC)cc5)c5ccc2[nH]5)C=C4)C=C3)cc1 (stereo unspecified) | > 126 | > 126 | –

Row | Structure (SMILES) | EC50 [µM] | IC50 [µM] | outcome
55 | CCOC(=O)C(OP(=O)(OCC)OCC)C(F)(F)F (stereo unspecified) | > 200 | > 200 | –
56 | CCOC(=O)c1nc(SC)n(C)c1C(=O)OCC | > 200 | > 200 | –
57 | CC(=O)OCC12C(=O)C[C@@H](C)C3(CC(c4ccoc4)OC3=O)C1CCC(OC(C)=O)C21CO1 (stereo partly specified) | > 200 | 135 | –
58 | O=c1c2cccnc2[nH]c2ccc3scnc3c12 | > 200 | > 200 | –
59 | CCCCCCCCCCCC(O)=C1C(=O)CCCC1=O | > 17.8 | > 17.8 | –
60 | N#Cc1c(C#N)c(SSc2c(C#N)c(C#N)c(N)n2-c2ccccc2)n(-c2ccccc2)c1N | > 20 | 1.95 | –
61 | CC12CCC(CC1)C(C)(C)N=C(N)S2 | > 200 | 56.2 | –
62 | COc1ccc(NC(=S)/C(=C(/[O-])c2ccc(C)cc2)[n+]2ccccc2)cc1 | – | – | inactive
63 | CCCCCCCCCCCCCCCC=C(c1cc(Br)c(OC)c(C(=O)OC)c1)c1cc(Br)c(OC)c(C(=O)OC)c1 | > 27.5 | > 27.5 | –
64 | COC(=O)C1=C(c2ccc3c(c2)OCO3)OC(c2ccc3c(c2)OCO3)C1 (stereo unspecified) | – | – | inactive
65 | CN(C)Cc1cc(C=O)cc(CN(C)C)c1O | > 200 | > 200 | –
66 | C=CCOC(=O)NC1C(OC(C)[C@@H](NC(=O)OCc2ccccc2)C(=O)OC(C)(C)C)OC(COC(C)=O)C(OC(C)=O)C1OC(C)=O (stereo partly specified) | > 200 | 28.8 | –
67 | c1ccc(CSC2(SCc3ccccc3)CCCC2)cc1 | – | – | inactive
68 | CCOC(=O)c1nc2cc(C(F)(F)F)ccc2nc1Nc1ccc(C(=O)OC)s1 | > 50.1 | 30.9 | –
69 | CCCCCCC1C=CCCN1 (stereo unspecified) | – | – | inactive
70 | O=S(=O)([O-])[O-].O=c1[nH]cnc2nc[n-]c12.[Cu+2].[OH3+].[OH3+] | > 10.7 | > 10.7 | –
71 | O=C1NC2=C(CCCC/C2=N\O)C12CCCCC2 | – | – | inactive
72 | Cc1ccc(CS(=O)(=O)C/N=c2\sc3ccccc3nc2/C=C(\O)c2ccc(Cl)cc2)cc1 | > 200 | > 200 | –
73 | COc1ccc(CN(Cc2ccccc2)c2ncccn2)cc1 | > 17 | > 17 | –
74 | CCCCCCCCCCCCCCCCN[Si](NCCCCCCCCCCCCCCCC)(NCCCCCCCCCCCCCCCC)NCCCCCCCCCCCCCCCC | > 240 | 138 | –
75 | CN(C)CCNC(=O)c1cccc2c1Oc1c(cccc1[N+](=O)[O-])O2 | > 20 | 0.245 | –
76 | COc1cc2ccc3c4cc(OC)c(OC(C)C)cc4c[n+](C)c3c2cc1OC | > 178 | 174 | –
77 | Cc1ccc(/C([O-])=C(\C(=S)Nc2cccc(C)c2)[n+]2ccccc2)cc1 | – | – | inactive
78 | Cc1cn(C2C[C@@H]3C(COC(c4ccc([N+](=O)[O-])cc4)N3O)O2)c(=O)[nH]c1=O (stereo partly specified) | > 200 | > 200 | –
79 | O=C1[C@@H]2[C@@H](c3ccccc3)[C@]2(Cl)C(=O)[C@H]2[C@H](c3ccccc3)[C@@]12Cl | – | – | inactive
